Patent publication US20170334919A1, “2-((4-AMINO-3-(3-FLUORO-5-HYDROXYPHENYL)-1H-PYRAZOLO[3,4-D]PYRIMIDIN-1 -YL)METHYL)-3-(2-(TRIFLUORO-MET HYL)BENZYL)QUINAZOLIN-4(3H)-ONE DERIVATIVES AND THEIR USE AS PHOSPHOINOSITIDE 3-KINASE INHIBITORS” (RESPIVERT LTD., priority 2013, published 2017)
Like-named read-outs stand apart in the source and are kept apart here.

Key:
[1] = test system: THP1 cells; assay: Chemotaxis to MCP1; format: cell-based; conditions: Homo sapiens, THP-1; read-out: REC50, THP1 cell chemotaxis to MCP1
Procedure: As a means of assessing PI3K γ dependent cell function, THP1 cell chemotaxis to MCP-1 was evaluated using a 48 well-chemotaxis chamber. THP1 cells from a human leukemic monocyte lymphoma cell line, (purchased from ATCC Manassas, Va.) were maintained in RPMI 1640 (Invitrogen Ltd., Paisley, UK) with 10% FCS at 37° C. Cells were re-suspended in 0.5% BSA/RPM11640 (2×10^6 cells/mL) and incubated for 10 min at 37° C., 5% CO2. Cell suspension aliquots (500 μL) were then treated either with compounds in neat DMSO or with DMSO as vehicle (2.5 μL) for 1hr (37° C., 5% CO2).
MCP1 (50 nM) was prepared in 0.5% BSA/RPM11640. MCP1 solution (50 μL) was added to each well in the bottom plate of a 48-well chemotaxis chamber (AP48, NeuroProbe Inc., Gaithersburg, Md.). A polycarbonate membrane (8 μm) was mounted on the bottom chamber, and then the top plate was mounted on the bottom chamber and filter membrane. […]
A solution of MTT (50 μL) in 10% FCS phenol red-free RPM11640 was added to each well, and the plate was incubated for 2 hr (37° C., 5% CO2). Neat DMSO (100 μL) was added to each well to extract formazan formed from MTT and the plates were shaken lightly for 1 hr prior to measuring the absorbance at 595 nm (Varioskan® Flash, Thermo-Fisher Scientific). […] Relative EC50 values were determined from concentration-inhibition curves using XL-Fit (idbs, Guildford, UK).

[2] = test system: PBMCs; assay: Cytostim-induced cytokine production in PBMCs; format: cell-based; conditions: Homo sapiens, PBMC
Procedure: As a means of assessing PI3Kδ-dependent cell function, cytostim-induced IL-4, IL-5, IL-13 and IFNγ production in PBMCs were evaluated by Luminex multiplex assay. All healthy volunteers were recruited by Quintiles Limited (London, UK), and blood samples were delivered to Respivert Ltd. This study was approved by the local Ethics Committee, and all subjects gave written informed consent.
PBMC suspensions (200 μL; 2×10^6 cells/mL) were added to a 96-well plate. Cells were treated with either test compounds in neat DMSO or DMSO as vehicle (2 μL) and incubated at RT for 1 hr. Cytostim (Miltentyi Biotec, Surrey, UK) was introduced at a ratio of 1:50 and the cells were incubated for 20 hr (37° C.; 5% CO2). Plates were spun at 500×g for 5 min and the supernatant collected. A high sensitivity cytokine magnetic bead kit (#HSCYTMAG-60SK, Millipore, Watford, UK) was used to measure the four analytes (IL-4, IL-5, IL-13 and IFNγ) by Luminex as follows: The magnetic antibody beads were multiplexed and incubated in a 96-well plate with standard, media only or sample (50 μL) overnight with shaking at 4° C. After washing twice with Millipore wash buffer provided in the kit using a magnetic plate washer, the beads were incubated for 1 hr with detection antibody (50 μL) with shaking at RT. A streptavidin-phycoerythrin solution provided in the kit was added for 30 min with shaking at RT. After washing, the beads were re-suspended in sheath fluid (150 μL) and analysed immediately. The Luminex system was set up to count 50 beads and the amount of each analyte in the supernatant was calculated against a standard curve. The IC50 values were determined from concentration-inhibition curves using XL-Fit (IDBS, Guildford, UK)

[3] = test system: IFNγ-primed U937 cells; assay: Superoxide anion production assay (zymosan-induced ROS); format: cell-based; conditions: Homo sapiens, U-937; read-out: REC50, Zymosan-induced ROS production in IFNγ-primed U937 cells
Procedure: As a means of assessing PI3Kδ dependent cell function, superoxide anion production in IFNγ-primed U937 cells was evaluated by a chemiluminescence assay. The U937 cells (purchased from ATCC, Manassas, Va.) were maintained in RPMI 1640 (Invitrogen Ltd., Paisley, UK) with 10% FCS at 37° C. The cells were suspended at a density of 10^7cells/mL in 40 mL 10% FCS RPMI 1640, and treated with 20 μL of 100 μg/mL IFNγ solution (final concentration: 50 ng/mL), and incubated at 37° C., 5% CO2 for 4 days.
IFNγ-primed U937 cells were seeded at 0.2×10^6 cells/well in a 96-well plate, and pre-incubated with test compounds for 2 hr in starvation media (0.5% FCS RPMI1640-phenol red free). Zymosan A (10 mg) from Saccharomyses cerevisiae (ex Sigma-Aldlich) was resuspended in 1 mL of 150 mM NaCl and boiled at 100° C. for 15 min. After boiling, Zymosan particles were washed with 1 mL of PBS twice, and incubated with 0.5 mL of BioParticles™ opsonized reagents (Life technologies) for 60 min at 37° C. […] Chemiluminescence indicating released superoxide anion was measured every 15 min up to 60 min by luminometric measurement (Varioskan® Flash, Thermo-Fisher Scientific).
The data at 60 min after incubation was used for analysis. […] The relative EC50 values were calculated from the concentration-response curves generated by the serial dilutions of the test compounds using XL-Fit (idbs, Guildford, UK).

[4] = test system: d-U937 cells; assay: MTT assay, cell viability; format: cell-based, human; conditions: 10 μg/mL
Procedure: PMA-differentiated U937 cells were pre-incubated with test compound (10 μg/mL) or vehicle for 4 hr in 5% FCS or 10% FCS for 24 hr. The supernatant was replaced with new media (200 μL) and MTT stock solution (10 μL, 5 mg/mL) was added to each well. After 1 hr incubation, the media were removed, 200 μL of DMSO was added to each well and the plates were shaken lightly for 1 hr prior to reading the absorbance at 550 nm. The percentage loss of cell viability was calculated for each well relative to vehicle (0.5% DMSO)-treatment.

[5] = test system: cigarette smoke-induced cell accumulation and biomarkers in murine BALF; assay: Cigarette smoke model; format: in vivo, A/J mice
Procedure: A/J mice (males, 5 weeks old) were exposed to cigarette smoke (4% cigarette smoke, diluted with compressed air) for 30 min/day for 11 days using a Tobacco Smoke Inhalation Experiment System for small animals (Model SIS-CS; Sibata Scientific Technology, Tokyo, Japan). Test substances were administered once daily for 3 days after the final cigarette smoke exposure (intra-nasal dose comprising 35 μL of solution in 50% DMSO/isotonic saline).
At 12 hr after administration of the last dose, animals were anesthetized, the trachea was cannulated and bronchial alveolar lavage (BAL) was carried out by the instillation into and then withdawal from the lungs, of PBS (100 mL/kg). Total cell numbers in the BALF samples were measured using a haemocytometer under a phase-contrast microscope. The proportions of alveolar macrophages and neutrophils were determined by FACS analysis using anti-mouse MOMA2-FITC (macrophage) or anti-mouse 7/4 (neutrophil).
Cells were suspended in PBS and were incubated with anti-MOMA2-FITC (2 μg/mL, Catalogue no SM065F, Acris Antibodies GmbH, Herford, Germany) or anti-7/4-FITC (2 μg/mL, Catalogue no CL050F, Acris Antibodies GmbH, Herford, Germany) for 30 min at 30° C., and also counterstained with propidium iodide (2 μg/mL) to allow exclusion of necrotic cells. The cells were washed with PBS, and transferred to FACS tubes. Samples was set in a flow cytometer (ALTRA II; Beckman Coulter Japan, Tokyo, Japan), and a single-parameter FL2 [PMT2] (FITC) histogram with log x-axis was plotted to illustrate relative intensity of FITC.
Data files are stored for subsequent analysis using Kaluza analysis software (ver. 1.2) to calculate the proportion of each cell type. The levels of CXCL1(KC), MCP1, TNFα, IL-17 or osteopontin in BALF were determined using Quentikine® mouse KC, MCP1, TNFα, IL-17 or osteopontin ELISA kit (R&D systems, Inc., Minneapolis, Minn., USA). The presence of malondialdehyde was measured using OxiSelect® TBARS Assay Kit (MDA Quantitation; Cell Biolabs Inc, San Diego, Calif., USA).

Nc1ncnc2c1c(-c1cc(O)cc(F)c1)nn2Cc1nc2cccc(C#CCOCCOCCO)c2c(=O)n1Cc1ccccc1C(F)(F)F [Compound (Ia), 2-((4-Amino-3-(3-fluoro-5-hydroxyphenyl)-1H-pyrazolo[3,4-d]pyrimidin-1-yl)methyl)-5-(3-(2-(2-hydroxyethoxy)ethoxy)prop-1-yn-1-yl)-3-(2-(trifluoromethyl)benzyl)quinazolin-4(3H)-one] was tested, and the EC50 [1] was > 14200 nM, the IC50 ([2]; read-out: IC50, Cytostim-induced IFNγ in PBMCs) was 60.8 nM and the IC50 ([2]; read-out: IC50, Cytostim-induced IL-4 in PBMCs) was 674 nM. For the same molecule, the IC50 ([2]; read-out: IC50, Cytostim-induced IL-5 in PBMCs) was 14.5 nM, the IC50 ([2]; read-out: IC50, Cytostim-induced IL-13 in PBMCs) was 6.1 nM and the EC50 [3] was 143 nM. For the same molecule, the “Cell Viability MTT Assay in d-U937 cells at 4 hr” value ([4]; 4 hr) was “−ve (−ve indicates a value of <30% inhibition at 10 μg/mL)” and the “Cell Viability MTT Assay in d-U937 cells at 24 hr” value ([4]; 24 hr) was “−ve (−ve indicates a value of <30% inhibition at 10 μg/mL)”.
In the case of C[C@@H]1C[C@H]2[C@@H]3CCC4=CC(=O)C=C[C@]4(C)[C@@]3(F)[C@@H](O)C[C@]2(C)[C@@]1(O)C(=O)CO [dexamethasone, reference compound], the “activity in the cigarette smoke model” value ([5]; 0.3-10 mg/kg, p.o.) is reported as “inactive”.
For CCC(=O)O[C@]1(C(=O)SCF)[C@H](C)C[C@H]2[C@@H]3C[C@H](F)C4=CC(=O)C=C[C@]4(C)[C@@]3(F)[C@@H](O)C[C@@]21C [fluticasone propionate, reference compound], the “effect as monotherapy in the cigarette smoke model” value ([5]; dose used for co-administration with compound (I)) was “lacks any significant effect as monotherapy”.
